Results as given in US11241013B2, “Benzimidazole compounds as agricultural chemicals” (REDAG CROP PROTECTION LTD, priority 2017, dated 2022).

Experiments:
Format in all cases: cell-based
Pythium ultimum = experiment: Amended agar assay; design: key to % control Pythium ultimum 2 ppm / % control Pythium ultimum 20 ppm: D: no control detected at this concentration; C: up to 50% control; B: from 50 to 99% control; A: a control of greater than 99%, i.e. no detectable colony growth; settings: amended PDA agar, % reduction in colony growth vs control plate, 18° C.; for inhibition of growth at 20 ppm / inhibition of growth at 2 ppm: Globisporangium ultimum
Protocol: Testing was carried out on potato dextrose agar (PDA) amended with each compound at a test concentration of typically 20 ppm or 2 ppm. Amended agar was poured into three replicate 9 cm petri dishes. Each replicate dish was inoculated in the centre with a 5 mm agar plug taken from the leading edge of a culture aged between 2 and 7 days old; the age of the culture was dependant on the growth rate of the pathogen being tested. The test pathogens were Pythium ultimum and Phytophthora cinnamomi. Plates were incubated at 18° C. and the diameter of each colony measured before growth on the fastest growing plate reached the plate edge. This varied between 2 and 7 days depending on the growth rate of test pathogens. The % reduction in colony growth compared to the control plate was calculated for each pathogen. The results are provided in Table 1, in which D represents no control detected at this concentration; C represents up to 50% control; B from 50 to 99% control; and A represents a control of greater than 99%, i.e. no detectable colony growth.
Alternatively, or in addition, the same assay was conducted at descending test concentrations with 5-fold dilutions typically down to 0.032 ppm though sometimes as low as 0.00026 ppm, and an EC50 (the concentration at which 50% control would be achieved) was determined. The results are provided in Table 1 in which G represents no control detected at 20 ppm, F represents an EC50 of ≥20 ppm and E represents an EC50 of less than 20 ppm.

Phytophthora cactorum [1] = experiment: 96 well plate test; design: key: G: no control detected at 20 ppm; F: an EC50 of ≥20 ppm; an EC50 of less than 20 ppm; settings: 96 well plate assay, agar amended to 20, 2, 0.2 and 0.02 ppm, assessed after 2 to 3 days
Protocol: (§1) Compounds were screened in 96 well plates with 10 compounds per plate. Each compound was screened using agar amended to 20, 2, 0.2 and 0.02 ppm, with proline at 50 and 10 ppm and 0.2% DMSO used as controls. Each test concentration and standard was replicated twice on a plate. Compounds were screened against Phytophthora cactorum. The agar used in the test is a 1% potato dextrose agar. 1000 spores/mL agar were added to the appropriate agar. A ×10 stock solution in 2% DMSO was produced for each dose i.e. 200, 20, 2 and 0.2 ppm, and 10 μl of this added to the appropriate wells on the plate. An equivalent amount of 2% DMSO and proline stock at 500 and 100 ppm were added for the controls. To each well 90 μl of the appropriate agar spore suspension was added to give the required final well concentrations. Plates were incubated at room temperature (18° C.) and assessed after 2 to 3 days. The amount of pathogen growth in each well was compared to the DMSO controls and an EC50 concentration was calculated. The results are provided in Table 1 in which H represents no control detected at 20 ppm, G represents no control detected at 2 ppm (where the highest test concentration in the assay was 2 ppm), F represents an EC50 of ≥20 ppm, E represents an EC50 of less than 20 ppm.

Phytophthora cactorum [2] = experiment: 96 well plate test; settings: 96 well plate assay, agar amended to 20, 2, 0.2 and 0.02 ppm, assessed after 2 to 3 days, read-out: EC50 Phytophthora spp. (Phytophthora cactorum)
Protocol: as §1

| SMILES | EC50 Phytophthora spp. (Phytophthora cactorum) (Phytophthora cactorum [1]) | inhibition of growth at 2 ppm (Pythium ultimum) | EC50 (Phytophthora cactorum [2]) | also measured |
| --- | --- | --- | --- | --- |
| Cn1nnnc1-n1c(OCc2ncccn2)nc2ccccc21 [Example 2] | H |  |  | % control Pythium ultimum 20 ppm (Pythium ultimum; 20 ppm): D |
| Cn1nnnc1-n1c(OCc2cnccn2)nc2ccccc21 [Example 5] | H |  |  | inhibition of growth at 20 ppm (Pythium ultimum; 20 ppm): < 50%; % control Pythium ultimum 2 ppm (Pythium ultimum): D |
| Nc1cccc(COc2nc3ccccc3n2-c2ncncc2Cl)n1 [Example 9] | H | < 50% |  |  |
| COCCCOc1ccnc(COc2nc3ccccc3n2-c2nnnn2C)c1C [Example 15] | H | < 50% |  | inhibition of growth at 20 ppm (Pythium ultimum; 20 ppm): > 99% |
| Cn1nnnc1-n1c(OCc2cccnc2)nc2ccccc21 [Example 18] | H | < 50% |  |  |
| Cn1nnnc1-n1c(OCc2ccncc2)nc2ccccc21 [Example 19] | H | < 50% |  |  |
| Cn1nnnc1-n1c(OCc2cccnn2)nc2ccccc21 [Example 21] | H |  |  | inhibition of growth at 20 ppm (Pythium ultimum; 20 ppm): 50 to 99%; % control Pythium ultimum 2 ppm (Pythium ultimum): D |
| Cn1nnnc1-n1c(OCCc2ccccn2)nc2ccccc21 [Example 25] | H | < 50% |  |  |
| Cn1nnnc1-n1c(OCc2cccc(-c3ccccc3)n2)nc2ccccc21 [Example 32, 1-(1-Methyl-1H-tetrazol-5-yl)-2-((6-phenylpyridin-2-yl)methoxy)-1H-benzo[d]imidazole] | H | < 50% |  |  |
| Cn1nnnc1-n1c(COc2ccccn2)nc2ccccc21 [Example 34, 1-(1-Methyl-1H-tetrazol-5-yl)-2-((pyridin-2-yloxy)methyl)-1H-benzo[d]imidazole] | H |  |  | % control Pythium ultimum 2 ppm (Pythium ultimum): D |
| CN(C)c1cccc(COc2nc3ccccc3n2-c2nnnn2C)n1 [Example 49, N,N-Dimethyl-6-(((1-(1-methyl-1H-tetrazol-5-yl)-1H-benzo[d]imidazol-2-yl)oxy)methyl)pyridin-2-amine] | H |  |  | % control Pythium ultimum 2 ppm (Pythium ultimum): D |
| COc1cccc(COc2nc3ccccc3n2-c2nnnn2C)n1 [Example 52] | H |  |  | % control Pythium ultimum 2 ppm (Pythium ultimum): D |
| CC(C)CCOc1cccc(COc2nc3ccccc3n2-c2nnnn2C)n1 [Example 53] | H |  |  | % control Pythium ultimum 2 ppm (Pythium ultimum): D |
| CSc1cccc(COc2nc3ccccc3n2-c2nnnn2C)n1 [Example 54] | H |  |  | % control Pythium ultimum 2 ppm (Pythium ultimum): D |
| Cn1nnnc1-n1c(OCc2ccc(N)cn2)nc2ccccc21 [Example 57] | H |  |  | % control Pythium ultimum 2 ppm (Pythium ultimum): D |
| Cn1nnnc1-n1c(OCc2cccc(S(C)(=O)=O)n2)nc2ccccc21 [Example 58, 1-(1-Methyl-1H-tetrazol-5-yl)-2-((6-(methylsulfonyl)pyridin-2-yl)methoxy)-1H-benzo[d]imidazole] | H |  |  | % control Pythium ultimum 2 ppm (Pythium ultimum): D |
| COCc1cccc(COc2nc3c(Cl)cccc3n2-c2nnnn2C)n1 [Example 72] | H | < 50% |  |  |
| CCC(C)Nc1cccc(COc2nc3ccccc3n2-c2nnnn2C)n1 (centres unmarked) [Example 82] |  | > 99% | < 20 µg/mL |  |
| Cn1nnnc1-n1c(OCc2cccc(NCCC(F)(F)F)n2)nc2ccccc21 [Example 83] |  | > 99% | < 20 µg/mL |  |
| Cn1nnnc1-n1c(OCc2cccc(NCc3ccc(Cl)cc3)n2)nc2ccccc21 [Example 84] |  | > 99% | < 20 µg/mL |  |
| Cn1nnnc1-n1c(OCc2cccc(NCc3cccc(Cl)c3)n2)nc2ccccc21 [Example 85] |  | > 99% | < 20 µg/mL |  |
| Cn1nnnc1-n1c(OCc2cccc(NCc3ccc(F)cc3)n2)nc2ccccc21 [Example 86] |  | > 99% | < 20 µg/mL |  |

| SMILES | EC50 Phytophthora spp. (Phytophthora cactorum) (Phytophthora cactorum [1]) | inhibition of growth at 2 ppm (Pythium ultimum) | EC50 (Phytophthora cactorum [2]) | also measured |
| --- | --- | --- | --- | --- |
| Cn1nnnc1-n1c(OCc2cccc(NCC3CC3)n2)nc2c(Cl)cccc21 [Example 87] |  | > 99% | < 20 µg/mL |  |
| CCCNc1cccc(COc2nc3c(Cl)cccc3n2-c2nnnn2C)n1 [Example 88] |  | > 99% | < 20 µg/mL |  |
| Cn1nnnc1-n1c(OCc2cccc(NCc3ccccc3)n2)nc2c(Cl)cccc21 [Example 89] |  | > 99% | < 20 µg/mL |  |
| CC(C)CCNc1cccc(COc2nc3c(Cl)cccc3n2-c2nnnn2C)n1 [Example 90] |  | > 99% | < 20 µg/mL |  |
| Cn1nnnc1-n1c(OCc2cccc(NCC3CC3)n2)nc2c(F)cccc21 [Example 91] |  | > 99% | < 20 µg/mL |  |
| Cn1nnnc1-n1c(OCc2cccc(NCc3ccccc3Cl)n2)nc2ccccc21 [Example 92] |  | > 99% | < 20 µg/mL |  |
| Cn1nnnc1-n1c(OCc2cccc(NCc3cccc(C#N)c3)n2)nc2ccccc21 [Example 93] |  | > 99% | < 20 µg/mL |  |
| COc1cccc(CNc2cccc(COc3nc4ccccc4n3-c3nnnn3C)n2)c1 [Example 94] |  | > 99% | < 20 µg/mL |  |
| Cc1cccc(CNc2cccc(COc3nc4ccccc4n3-c3nnnn3C)n2)c1 [Example 95] |  | > 99% | < 20 µg/mL |  |
| Cn1nnnc1-n1c(OCc2cccc(NCc3cccc(OC(F)(F)F)c3)n2)nc2ccccc21 [Example 96] |  | > 99% | < 20 µg/mL |  |
| Cn1nnnc1-n1c(OCc2cccc(NCc3cccc(C(F)(F)F)c3)n2)nc2ccccc21 [Example 97] |  | > 99% | < 20 µg/mL |  |
| CCCCNc1cccc(COc2nc3c(Cl)cccc3n2-c2nnnn2C)n1 [Example 98] |  | > 99% | < 20 µg/mL |  |
| CCCNc1cccc(COc2nc3c(Br)cccc3n2-c2nnnn2C)n1 [Example 99] |  | > 99% | < 20 µg/mL |  |
| Cn1nnnc1-n1c(OCc2cccc(NCC3CC3)n2)nc2c(Br)cccc21 [Example 100] |  | > 99% | < 20 µg/mL |  |
| Cc1cccc(CNc2cccc(COc3nc4c(Cl)cccc4n3-c3nnnn3C)n2)c1 [Example 101] |  | 50 to 99% | < 20 µg/mL |  |
| Cc1cccc(CNc2cccc(COc3nc4c(Br)cccc4n3-c3nnnn3C)n2)c1 [Example 102] |  | 50 to 99% | < 20 µg/mL |  |
| CC(C)Nc1cccc(COc2nc3c(Cl)cccc3n2-c2nnnn2C)n1 [Example 103] |  | > 99% | < 20 µg/mL |  |
| Cn1nnnc1-n1c(OCc2nc3ccccc3s2)nc2c(Br)cccc21 [Example 104] |  | > 99% | < 20 µg/mL |  |
| Cn1nnnc1-n1c(OCc2nc3ccccc3n2C)nc2c(Br)cccc21 [Example 105] |  | > 99% | < 20 µg/mL |  |
| Cn1nnnc1-n1c(OCc2cccc(N)n2)nc2c(Br)cccc21 [Example 106] |  | 50 to 99% | < 20 µg/mL |  |
| Cn1nnnc1-n1c(OCc2cc(N)ccn2)nc2ccccc21 [Example 108, 2-(((1-(1-Methyl-1H-tetrazol-5-yl)-1H-benzo[d]imidazol-2-yl)oxy)methyl)pyridin-4-amine] |  |  | ≥ 20 µg/mL | % control Pythium ultimum 2 ppm (Pythium ultimum): D |
